Source: BindingDB's records for doi:10.1046/j.1471-4159.1996.67010058.x (Cns Research, 1996)
“And” between values parts separate entries of the source, which are not always exact repeats. Identical values can stand only once.

Experiments:
[1] = biological target: Metabotropic glutamate receptor 2 (Homo sapiens, UniProt Q14416)
[2] = biological target: Metabotropic glutamate receptor 3 (Homo sapiens, UniProt Q14832)
[3] = biological target: Metabotropic glutamate receptor 1 (Homo sapiens, UniProt Q13255)
Chain of Metabotropic glutamate receptor 1 (Q13255 whole entry): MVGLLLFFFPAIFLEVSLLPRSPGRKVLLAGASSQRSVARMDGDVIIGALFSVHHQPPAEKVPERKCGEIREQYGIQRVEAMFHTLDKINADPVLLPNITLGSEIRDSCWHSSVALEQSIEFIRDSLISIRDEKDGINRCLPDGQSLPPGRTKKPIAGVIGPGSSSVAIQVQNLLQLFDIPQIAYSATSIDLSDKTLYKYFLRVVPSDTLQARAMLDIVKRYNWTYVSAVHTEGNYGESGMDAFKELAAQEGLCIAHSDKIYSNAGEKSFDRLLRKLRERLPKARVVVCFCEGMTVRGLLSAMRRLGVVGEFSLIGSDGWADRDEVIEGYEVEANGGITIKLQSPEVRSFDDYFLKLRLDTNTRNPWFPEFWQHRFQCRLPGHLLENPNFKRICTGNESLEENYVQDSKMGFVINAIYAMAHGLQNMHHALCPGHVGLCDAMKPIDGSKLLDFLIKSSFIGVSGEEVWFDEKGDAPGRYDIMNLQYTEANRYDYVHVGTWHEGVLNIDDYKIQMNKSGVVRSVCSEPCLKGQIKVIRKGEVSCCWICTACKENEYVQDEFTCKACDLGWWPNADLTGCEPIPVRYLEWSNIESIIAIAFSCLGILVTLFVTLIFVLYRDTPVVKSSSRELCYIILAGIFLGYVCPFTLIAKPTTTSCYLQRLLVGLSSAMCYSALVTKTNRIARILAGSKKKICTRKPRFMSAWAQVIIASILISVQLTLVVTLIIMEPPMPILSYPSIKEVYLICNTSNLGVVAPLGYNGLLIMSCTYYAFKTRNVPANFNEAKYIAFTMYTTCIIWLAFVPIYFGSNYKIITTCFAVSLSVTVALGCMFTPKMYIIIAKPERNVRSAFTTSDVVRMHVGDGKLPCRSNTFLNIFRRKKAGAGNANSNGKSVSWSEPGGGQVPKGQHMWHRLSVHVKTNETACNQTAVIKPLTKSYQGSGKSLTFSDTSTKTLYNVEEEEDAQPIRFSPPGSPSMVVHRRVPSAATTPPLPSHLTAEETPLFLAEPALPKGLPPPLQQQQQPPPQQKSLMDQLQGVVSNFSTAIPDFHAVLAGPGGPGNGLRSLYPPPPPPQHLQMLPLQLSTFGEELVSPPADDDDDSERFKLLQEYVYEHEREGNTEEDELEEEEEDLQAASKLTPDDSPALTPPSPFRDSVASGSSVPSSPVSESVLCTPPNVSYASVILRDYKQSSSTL

Chain of Metabotropic glutamate receptor 2 (Q14416 whole entry): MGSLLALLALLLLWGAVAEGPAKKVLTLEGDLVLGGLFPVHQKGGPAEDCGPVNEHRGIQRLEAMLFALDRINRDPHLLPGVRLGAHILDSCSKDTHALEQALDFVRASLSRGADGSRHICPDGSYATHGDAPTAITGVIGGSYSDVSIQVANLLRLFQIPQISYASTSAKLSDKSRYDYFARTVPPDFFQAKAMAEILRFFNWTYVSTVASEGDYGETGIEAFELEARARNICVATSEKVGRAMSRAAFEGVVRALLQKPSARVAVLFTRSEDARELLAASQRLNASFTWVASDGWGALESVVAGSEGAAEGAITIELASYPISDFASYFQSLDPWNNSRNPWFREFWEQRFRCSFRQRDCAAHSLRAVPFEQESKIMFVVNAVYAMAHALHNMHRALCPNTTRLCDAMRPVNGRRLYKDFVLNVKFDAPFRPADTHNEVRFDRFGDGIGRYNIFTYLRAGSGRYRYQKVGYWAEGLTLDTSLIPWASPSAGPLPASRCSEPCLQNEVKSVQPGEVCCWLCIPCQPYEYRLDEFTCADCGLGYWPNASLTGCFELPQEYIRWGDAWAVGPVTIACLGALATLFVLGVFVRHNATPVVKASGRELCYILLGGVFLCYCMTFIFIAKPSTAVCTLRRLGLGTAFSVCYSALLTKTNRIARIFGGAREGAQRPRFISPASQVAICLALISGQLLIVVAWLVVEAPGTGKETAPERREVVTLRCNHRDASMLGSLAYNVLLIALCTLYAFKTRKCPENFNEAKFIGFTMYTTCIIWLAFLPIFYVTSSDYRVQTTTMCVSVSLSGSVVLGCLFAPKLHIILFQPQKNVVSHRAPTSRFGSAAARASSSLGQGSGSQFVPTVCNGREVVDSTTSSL
Chain of Metabotropic glutamate receptor 3 (Q14832 whole entry): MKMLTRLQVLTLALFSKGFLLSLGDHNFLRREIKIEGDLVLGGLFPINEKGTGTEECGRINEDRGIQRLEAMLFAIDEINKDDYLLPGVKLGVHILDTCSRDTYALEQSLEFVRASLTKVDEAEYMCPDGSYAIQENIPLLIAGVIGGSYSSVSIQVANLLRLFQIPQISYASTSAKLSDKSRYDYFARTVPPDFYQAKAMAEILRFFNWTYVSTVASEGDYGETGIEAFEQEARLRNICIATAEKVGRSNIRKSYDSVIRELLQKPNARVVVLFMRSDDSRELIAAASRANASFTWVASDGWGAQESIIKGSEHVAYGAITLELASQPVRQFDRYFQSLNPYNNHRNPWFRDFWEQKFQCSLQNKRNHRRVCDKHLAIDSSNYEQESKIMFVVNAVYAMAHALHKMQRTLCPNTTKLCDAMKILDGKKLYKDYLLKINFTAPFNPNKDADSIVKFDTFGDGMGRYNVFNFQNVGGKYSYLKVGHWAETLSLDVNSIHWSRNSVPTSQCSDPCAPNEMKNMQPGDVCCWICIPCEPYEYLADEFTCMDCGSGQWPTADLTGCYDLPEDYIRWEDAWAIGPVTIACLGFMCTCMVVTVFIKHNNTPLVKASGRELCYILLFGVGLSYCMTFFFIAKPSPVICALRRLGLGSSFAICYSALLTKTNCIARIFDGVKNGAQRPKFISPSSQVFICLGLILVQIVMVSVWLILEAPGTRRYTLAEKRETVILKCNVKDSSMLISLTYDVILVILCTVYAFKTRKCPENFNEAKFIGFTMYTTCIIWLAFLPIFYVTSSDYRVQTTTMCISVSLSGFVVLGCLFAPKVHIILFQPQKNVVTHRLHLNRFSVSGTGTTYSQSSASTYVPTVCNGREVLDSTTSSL

`N[C@@]1(C(=O)O)CC[C@H](C(=O)O)C1` [1S, 3R-ACPD] was tested, and the Ki [1] was over 10 µM and the Ki [2] was > 10 µM and 5.4 µM.
Molecule `N[C@@H](Cn1oc(=O)[nH]c1=O)C(=O)O` [2-amino-3-(3,5-dioxo[1,2,4]oxadiazolidin-2-yl)propionic acid] has a Ki [1] of 0.42 µM.
With `N[C@H](C(=O)O)[C@H]1C[C@H]1C(=O)O` [L-CCG-IV] the Ki [3] was 3.47 µM and the Ki [1] was over 10 µM.
